# Values quoted from earlier work, collected in patent US20220249381A1, “COMPRESSED MACITENTAN COMPOSITIONS, METHODS AND USES THEREOF” (TECNIMEDE - SOCIEDADE TÉCNICO-MEDICINAL, SA, priority 2019, published 2022).
structure (smiles),measurement,setting,value
"CCCNS(=O)(=O)Nc1ncnc(OCCOc2ncc(Br)cn2)c1-c1ccc(Br)cc1 [Macitentan, N-[5-(4-Bromophenyl)-6-[2-[(5-bromo-2-pyrimidinyl)oxy]ethoxy]-4-pyrimidinyl]-N′propylsulfamide]",solubility,BCS characterisation,low solubility
same,solubility in organic solvents,methanol and ethanol,only slightly soluble
same,solubility in aqueous solutions,"room temperature, pH 1.2, 4, 6.8, 7, 9",insoluble
